{"source": "patent US20110173718A1", "about": "“HERBICIDE TOLERANT PLANTS” (SYNGENTA CROP PROTECTION, INC., priority 2008, published 2011)", "assay_type_in_all_cases": "in vivo", "key": {"[1]": {"test_system": "tobacco plants expressing Wheat HPPD", "assay": "Glasshouse spray test, wheat HPPD transgenic tobacco", "details": "for % damage observed 16 DAT: Wheat HPPD T1; for blch (% bleaching at the meristem relative to control plants) / ht (% height reduction relative to control plants): 100 g, individual T0 lines", "description": "Transgenic lines of tobacco, soyabean and corn etc. can be engineered to express various heterologous HPPDs derived from, for example Avena (SEQ ID #26), Wheat (SEQ ID #27), Pseudomonas fluorescens (SEQ ID # 25) and Shewanella colwelliana (SEQ ID #28) as, for example, described in WO 02/46387.\nSingle copy events amongst the T1 plant lines are identified by their 3:1 segregation ratio (wrt kanamycin and or herbicide) and by quantitative RT-PCR. Seed from the thus selected T1 tobacco (var Samsun) lines are sown in 3 inch diameter pots containing 50% peat, 50% John Innes soil no 3. After growth to the 3 leaf stage, plants are sprayed, as described above, in order to test for herbicide tolerance relative to like-treated non-transgenic tobacco plants. […]\nExactly as described in example 5 of WO 02/46387 the wheat HPPD gene sequence (Embl DD064495) is cloned behind an Arabidopsis Rubisco small subunit (SSU) promoter and in front of a nos gene terminator to produce an SSU Wheat HPPD nos expression cassette' which is cloned into a binary vector and transformed into tobacco to produce a population of 30-50 transgenic events."}, "[2]": {"test_system": "Chlamydomonas HST T0 tobacco lines", "assay": "Glasshouse spray test, Chlamydomonas HST transgenic tobacco", "set-up": "herbicidal damage score: scale not given here", "details": "for blch (% bleaching at the meristem relative to control plants) / ht (% height reduction relative to control plants): 100 g, individual T0 lines", "description": "In just the same way the Chlamydomonas HST gene sequence (AM285678) is codon-optimised for tobacco and cloned behind the double Cauliflower mosaic virus 35S promoter and Tobacco mosaic virus enhancer sequences and in front of a nos gene terminator, cloned into a binary vector and transformed into tobacco to produce a population of T0 plants."}, "[3]": {"test_system": "Tobacco (var Samsun) plantlets in agar", "assay": "HST + HPPD herbicide effects on tobacco seedlings in agar", "details": "for % Injury, plus Mesotrione (0.004 ppm) (EXPECTED): Colby expected; for % Injury (O − E): observed minus expected", "description": "Tobacco (var Samsun) plantlets germinated aseptically in agar made up in 1/3 strength Murashige and Skoog salts medium along with various doses of herbicide. Bleaching damage to emerging plantlets is assessed 7 DAT. The plantlets are kept covered under clear perspex and grown at 18° C. (night) and 24° C. (day) under a 16 h day (˜500-900 umol/m^2), 8 h darkness regime. Herbicide affected plantlets are bleached white and grow less. Synergistic/antagonistic responses are calculated using the Colby formula (Colby, S. R. (Calculating synergistic and antagonistic responses of herbicide Combinations”, Weeds, 15, p. 20-22, 1967)."}, "[4]": {"test_system": "Arabidopsis HST transgenic tobacco plants", "assay": "Glasshouse spray test, Arabidopsis HST transgenic tobacco", "details": "D2 line (Arabidopsis HST, segregating T1), individual plants"}, "[5]": {"test_system": "tobacco leaf explants", "assay": "Tobacco leaf explants plated on NBM medium with haloxydine", "details": "1 mg/1 haloxydine", "description": "To roughly evaluate comparative levels of ectopic HST expression independent PCR positive tobacco shoots have young leaves removed, cut into 1 cm squares and plated onto NBM medium incorporating 1 mg/1 haloxydine. These leaf explants produce callus and ultimately regenerated shoots."}, "[6]": {"details": "haloxydine 0.3 ppm + mesotrione 0.004 ppm, agar, 7 DAT"}, "[7]": {"details": "haloxydine 0.6 ppm + mesotrione 0.004 ppm, agar, 7 DAT"}, "[8]": {"details": "haloxydine 1.2 ppm + mesotrione 0.004 ppm, agar, 7 DAT"}, "[9]": {"details": "haloxydine 2.4 ppm + mesotrione 0.004 ppm, agar, 7 DAT"}, "[10]": {"details": "haloxydine 4.7 ppm + mesotrione 0.004 ppm, agar, 7 DAT"}, "[11]": {"details": "haloxydine 9.4 ppm + mesotrione 0.004 ppm, agar, 7 DAT"}, "[12]": {"details": "haloxydine 18.8 ppm + mesotrione 0.004 ppm, agar, 7 DAT"}, "[13]": {"details": "haloxydine 37.5 ppm + mesotrione 0.004 ppm, agar, 7 DAT"}}, "note": "Where “and” joins values, the source holds several entries; their conditions need not be identical. Equal values may be shown once.", "data": [{"compound": "CS(=O)(=O)c1ccc(C(=O)C2C(=O)CCCC2=O)c([N+](=O)[O-])c1", "note": "[Mesotrione, mesotrione, reference compound]", "values": [{"measurement": "% damage observed 16 DAT", "setting": "[1]; 37 g/ha", "value": 0, "unit": "%"}, {"measurement": "% damage observed 16 DAT", "setting": "[1]; 111 g/ha", "value": 2, "unit": "%"}, {"measurement": "% damage observed 16 DAT", "setting": "[1]; 333 g/ha", "value": 0, "unit": "%"}, {"measurement": "% damage observed 16 DAT", "setting": "[1]; 1000 g/ha", "value": 13, "unit": "%"}, {"measurement": "herbicidal damage score", "setting": "[2]; Chlamydomonas HST T0 tobacco events (one value per event), 15 g/ha of mesotrione, 21 DAT", "value": "70 and 55 and 85 and 65 and 80 and 75 and 60 and 100"}, {"measurement": "% Injury (bleaching), mesotrione by itself", "setting": "[3]; mesotrione 0.004 ppm, 0.75% v/v DMSO, no haloxydine, agar, 7 DAT", "value": 35, "unit": "%"}]}, {"compound": "CC(C)C(=O)Oc1c(-c2c(F)ccc(Br)c2Cl)c(=O)n(CC(F)F)c2nccnc12", "note": "[Compound 2.30]", "values": [{"measurement": "blch (% bleaching at the meristem relative to control plants)", "setting": "[1]; 7 DAT", "value": "35% (5×) and 40% (5×) and 50% (2×) and 60% (2×) and 30% (6×) and 70% (2×) and 10% (2×)"}, {"measurement": "ht (% height reduction relative to control plants)", "setting": "[1]; 7 DAT", "value": "50% (5×) and 60% (3×) and 90% (3×) and 70% (7×) and 40% (2×) and 30% (2×) and 20% (2×)"}, {"measurement": "blch (% bleaching at the meristem relative to control plants)", "setting": "[1]; 21 DAT", "value": "0% (15×) and 90% (2×) and 70% (5×) and 50% (2×) and 65% and 45%"}, {"measurement": "ht (% height reduction relative to control plants)", "setting": "[1]; 21 DAT", "value": "45% (2×) and 85% (3×) and 80% (2×) and 30% and 55% (3×) and 50% (5×) and 40% (3×) and 60% (2×) and 75% and 70% (2×) and 95% and 90%"}, {"measurement": "blch (% bleaching at the meristem relative to control plants)", "setting": "[2]; 17 DAT", "value": "0% (14×) and 15% (3×) and 20% and 65% and 10% (2×) and 90% and 75%"}, {"measurement": "ht (% height reduction relative to control plants)", "setting": "[2]; 17 DAT", "value": "15% (2×) and 10% (2×) and 55% (3×) and 25% and 30% (2×) and 0% (2×) and 5% and 8% and 20% (3×) and 40% (2×) and 50% and 35% and 90% and 85%"}, {"measurement": "blch (% bleaching at the meristem relative to control plants)", "setting": "[2]; 26 DAT", "value": "0% (19×) and 25% and 85% (2×) and 90% (2×)"}, {"measurement": "ht (% height reduction relative to control plants)", "setting": "[2]; 26 DAT", "value": "30% (5×) and 20% (6×) and 70% and 10% and 80% and 35% (2×) and 90% (2×) and 50% and 25% and 75% (2×) and 95% and 60%"}, {"measurement": "% damage at 7 DAT", "setting": "[4]; 150 gai/ha", "value": "65% and 40% (2×) and 50% and 55% and 60% (2×) and 90%"}, {"measurement": "% damage at 7 DAT", "setting": "[4]; 300 gai/ha", "value": "60% (2×) and 80% and 95% and 98% and 70% and 90% (2×)"}, {"measurement": "% damage at 7 DAT", "setting": "[4]; 450 gai/ha", "value": "35% (2×) and 20% and 55% (2×) and 60% and 65% and 70%"}]}, {"compound": "Oc1c(Cl)c(F)nc(F)c1Cl", "note": "[Compound 1.1, haloxydine]", "values": [{"measurement": "% Injury, plus Mesotrione (0.004 ppm) (EXPECTED)", "setting": "[3]; [6]", "value": 41.5, "unit": "%"}, {"measurement": "% Injury, plus Mesotrione (0.004 ppm) (EXPECTED)", "setting": "[3]; [7]", "value": 48, "unit": "%"}, {"measurement": "% Injury, plus Mesotrione (0.004 ppm) (EXPECTED)", "setting": "[3]; [8]", "value": 58, "unit": "%"}, {"measurement": "% Injury, plus Mesotrione (0.004 ppm) (EXPECTED)", "setting": "[3]; [9]", "value": 67.5, "unit": "%"}, {"measurement": "% Injury, plus Mesotrione (0.004 ppm) (EXPECTED)", "setting": "[3]; [10]", "value": 80, "unit": "%"}, {"measurement": "% Injury, plus Mesotrione (0.004 ppm) (EXPECTED)", "setting": "[3]; [11]", "value": 94, "unit": "%"}, {"measurement": "% Injury, plus Mesotrione (0.004 ppm) (EXPECTED)", "setting": "[3]; [12]", "value": 100, "unit": "%"}, {"measurement": "% Injury, plus Mesotrione (0.004 ppm) (EXPECTED)", "setting": "[3]; [13]", "value": 100, "unit": "%"}, {"measurement": "effect of adding a low dose of mesotrione on the herbicidal effect", "setting": "[3]; agar grown tobacco plantlets", "value": "synergises"}, {"measurement": "% Injury, plus Mesotrione (0.004 ppm) (OBSERVED)", "setting": "[3]; [6]", "value": 50, "unit": "%"}, {"measurement": "% Injury (bleaching), haloxydine only", "setting": "[3]; haloxydine 0.3 ppm, agar, 7 DAT", "value": 10, "unit": "%"}, {"measurement": "% Injury, plus Mesotrione (0.004 ppm) (OBSERVED)", "setting": "[3]; [7]", "value": 50, "unit": "%"}, {"measurement": "% Injury (bleaching), haloxydine only", "setting": "[3]; haloxydine 0.6 ppm, agar, 7 DAT", "value": 20, "unit": "%"}, {"measurement": "% Injury, plus Mesotrione (0.004 ppm) (OBSERVED)", "setting": "[3]; [8]", "value": 70, "unit": "%"}, {"measurement": "% Injury (bleaching), haloxydine only", "setting": "[3]; haloxydine 1.2 ppm, agar, 7 DAT", "value": 35, "unit": "%"}, {"measurement": "% Injury, plus Mesotrione (0.004 ppm) (OBSERVED)", "setting": "[3]; [9]", "value": 90, "unit": "%"}, {"measurement": "% Injury (bleaching), haloxydine only", "setting": "[3]; haloxydine 2.4 ppm, agar, 7 DAT", "value": 50, "unit": "%"}, {"measurement": "% Injury, plus Mesotrione (0.004 ppm) (OBSERVED)", "setting": "[3]; [10]", "value": 100, "unit": "%"}, {"measurement": "% Injury (bleaching), haloxydine only", "setting": "[3]; haloxydine 4.7 ppm, agar, 7 DAT", "value": 70, "unit": "%"}, {"measurement": "% Injury, plus Mesotrione (0.004 ppm) (OBSERVED)", "setting": "[3]; [11]", "value": 100, "unit": "%"}, {"measurement": "% Injury (bleaching), haloxydine only", "setting": "[3]; haloxydine 9.4 ppm, agar, 7 DAT", "value": 90, "unit": "%"}, {"measurement": "% Injury, plus Mesotrione (0.004 ppm) (OBSERVED)", "setting": "[3]; [12]", "value": 100, "unit": "%"}, {"measurement": "% Injury (bleaching), haloxydine only", "setting": "[3]; haloxydine 18.8 ppm, agar, 7 DAT", "value": 100, "unit": "%"}, {"measurement": "% Injury, plus Mesotrione (0.004 ppm) (OBSERVED)", "setting": "[3]; [13]", "value": 100, "unit": "%"}, {"measurement": "% Injury (bleaching), haloxydine only", "setting": "[3]; haloxydine 37.5 ppm, agar, 7 DAT", "value": 100, "unit": "%"}, {"measurement": "% Injury (O − E)", "setting": "[3]; [6]", "value": 8.5, "unit": "%"}, {"measurement": "% Injury (O − E)", "setting": "[3]; [7]", "value": 2, "unit": "%"}, {"measurement": "% Injury (O − E)", "setting": "[3]; [8]", "value": 12, "unit": "%"}, {"measurement": "% Injury (O − E)", "setting": "[3]; [9]", "value": 22.5, "unit": "%"}, {"measurement": "% Injury (O − E)", "setting": "[3]; [10]", "value": 20, "unit": "%"}, {"measurement": "% Injury (O − E)", "setting": "[3]; [11]", "value": 6, "unit": "%"}, {"measurement": "% Injury (O − E)", "setting": "[3]; [12]", "value": 0, "unit": "%"}, {"measurement": "% Injury (O − E)", "setting": "[3]; [13]", "value": 0, "unit": "%"}, {"measurement": "callus and shoot regeneration", "setting": "[5]; explants over expressing HST", "value": "green callus and shoots"}, {"measurement": "callus and shoot regeneration", "setting": "[5]; untransformed explants or transformants with limited HST expression", "value": "bleached callus and stunted bleached shoots that ultimately died"}, {"measurement": "% damage at 7 DAT", "setting": "[4]; 25 gai/ha", "value": "55% (2×) and 35% and 65% (3×) and 100% and 30%"}]}]}
